Data taken from patent US20040241754A1, “Modulating neuronal plasticity” (The Salk Institute for Biological Studies, priority 2003, published 2004).
Entries after “also recorded” stand apart in the source; their conditions may differ. Ends that are not written are not given here.

Legend:
[1] = test system: mossy fiber synapses of hippocampal CA3 pyramidal neurons; assay: Mossy fiber LTP, whole-cell patch clamp in hippocampal slices; type: cell-based, mice; details: for LTP (potentiation of the EPSC after tetanic stimulation): peptide 50 μM in patch electrode (postsynaptic), 25 to 30 minutes after tetanic stimulation; for LTP PPR (paired pulse ratio after LTP induction) / control PPR (paired pulse ratio before LTP induction): 40 ms interval
Protocol: The role of the GluR2 subunit in LTP at mossy fiber terminals was evaluated in whole cell patch clamp experiments using hippocampal CA3 pyramidal neurons. Briefly, transverse hippocampal slices (350 μm) were made from P12-18 mice (strain 129SvEv) as previously described (Contractor et al., Neuron 29, 209-16. (2001)). Slices were transferred to a recording chamber, and whole-cell patch clamp recordings made from visually identified pyramidal cells in the CA3 region of the hippocampus. The recording electrode (i.e., patch electrode) is filled with an “internal” solution described below. A seal between the glass of the electrode and the membrane of the cell is made. The seal is then “broken through” by pushing the electrode through the membrane to gain low resistance access to the cell interior and enable voltage clamping of the cell membrane. This also allows dialysis of the cell with test reagents such as peptides and antibodies. A stimulating electrode is attached to a current source and allows current to stimulate action potentials while a reference electrode is placed in the recording bath. The composition of the internal solution was: 95 mM CsF, 25 mM CsCl, 10 mM Cs-HEPES, 10 mM Cs-EGTA, 2 mM NaCl, 2 mM Mg-ATP, 10 mM QX-314, 5 mM TEA-Cl, 5 mM 4-AP, pH adjusted to 7.3 with CsOH.
Peptides were added directly to the internal solution on the day of the experiment from frozen stocks in protease inhibitors made up in phosphate buffered saline (PBS). To avoid leakage of peptides or antibodies into the extracellular space, pipette tips were filled with normal internal solution and then the pipette was backfilled with peptide/antibody containing internal fluid. The final concentration of peptides was 50 μM in all experiments. The final concentration of protease inhibitors were: bestatin 2 μg/ml, leupeptin 25 ng/ml, pepstatin 35 ng/ml, aprotinin 100 ng/ml.
In control experiments where peptides were not included, internal solutions were made up in exactly the same way with protease inhibitors in PBS but lacking any added peptide. Antibodies were made up in PBS stock and added directly to the internal solution at a final concentration of 20 μg/ml. The pH and osmolarity of all internal solutions were checked before use. Series resistances (Rs) were generally <10M and were continuously monitored throughout the duration of the experiment. […] Experiments using mutant mice were performed with heterozygous breedings blind to the genotype of the animal.
Mossy fiber EPSCs were evoked with a monopolar glass electrode positioned in the stratum lucidum. EPSCs were evaluated using a 40 ms interval between recordings. All recordings were made in the continuous presence of bicuculline (10 μM), picrotoxin (50 μM) and the NMDA receptor antagonist D-AP5 [D(-)-2-Amino-5-phosphonopentanoic acid; 50 μM]. The group II mGluR agonist, LCCG-1 (10 μM), which selectively depresses mossy fiber transmission, was applied at the end of each experiment. LTP was induced by tetanic stimulation comprising three 1 s stimulations (100 Hz) with a 10 s interval. Data are presented as mean±SEM. Parameters were compared using the Student's unpaired t-test where not specified, and the K-S test, p<0.05 was considered significant.
Cumulative probability is determined by ranking the EPSC data set from the highest to the lowest value from 20 to 30 minutes post tetanization. Each point is graphed with its corresponding percentile. […] The lowest LTP value was about 40% signified by the lowest point on the 1 st graph (open circles) and the largest LTP was about 160%.

GRIP PDZ4-6 = biological target: T1, GRIP PDZ4-6 (Rattus norvegicus, UniProt P97879); assay: Competitive binding of 35S-EphB2 to His-GRIP-PDZ4-6
T1 construct: corresponding to GRIP1 (amino acid 448-792); made in house; host or cells: E. coli BL21
T1 sequence (P97879 448-792): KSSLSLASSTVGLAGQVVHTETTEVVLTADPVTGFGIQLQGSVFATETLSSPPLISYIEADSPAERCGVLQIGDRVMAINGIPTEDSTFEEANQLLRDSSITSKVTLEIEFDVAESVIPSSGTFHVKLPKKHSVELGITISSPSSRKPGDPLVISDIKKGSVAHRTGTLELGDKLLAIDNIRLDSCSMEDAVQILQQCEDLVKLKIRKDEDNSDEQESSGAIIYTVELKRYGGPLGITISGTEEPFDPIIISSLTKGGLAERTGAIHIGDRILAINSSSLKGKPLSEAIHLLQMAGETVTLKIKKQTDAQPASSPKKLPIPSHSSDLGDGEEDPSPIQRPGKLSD
Protocol: A competitive binding assay was prepared to determine if the LTP inhibitory effects of the GluR2ct peptide were mediated through disruption of binding between Eph receptors and PDZ domain 6 of GRIP (Torres et al., Neuron 21, 1453-63. (1998)) as opposed to disruption of binding between the GluR2 subunit and the GluR2-binding PDZ 4 and 5 domains of GRIP (Dong et al., Nature 386, 279-84. (1997)). For this purpose, a binding assay was established between GRIP PDZ domain fragments (His-GRIP-PDZ4-6) and an EphB2 carboxy terminal fusion protein labeled with ^35S-methionine (^35S-EphB2).
Briefly, the carboxy terminal region of EphB2 corresponding to mouse EphB2 receptor (amino acid 930-993) was generated by PCR from mouse brain library and subcloned into pGEX2TK (Pharmacia). The GRIP(PDZ4-6) construct, corresponding to GRIP1 (amino acid 448-792) was obtained by PCR from an adult rat hippocampal library and subcloned into pRSET vector. E coli (strain BL21) were transformed with His-GRIP(PDZ4-6) and GST-EphB2 and protein production induced with IPTG. GST-EphB2 protein was purified on glutathionine beads and ^35S-EphB2 cleaved from GST with thrombin (1 U/μg). GRIP(PDZ4-6) protein was purified on Ni-NTA agarose, and eluted with imadazole. ^35S-EphB2 (50 nM) was incubated with (15 μg) of His-GRIP(PDZ4-6) protein in PBS buffer with protease inhibitors for 2 hrs at 22° C. in the absence or presence of peptides. ^35S-EphB2 binding to His-GRIP(PDZ4-6) was determined after a 45 min incubation with Ni-NTA agarose and vacuum filtration onto Whatman GFB filter circles (pretreated with 3% BSA). Filters were washed with ice-cold PBS buffer, allowed to equilibrate overnight in ECOLUME scintillation cocktail (ICN pharmaceuticals, Irvine Calif.), and specific counts measured in a scintillation counter. Non-specific binding was defined as the residual binding measured in the absence of His-GRIP(PDZ4-6).

[2] = test system: mossy fiber synapses of hippocampal CA3 pyramidal neurons; assay: Forskolin-mediated potentiation of mossy fiber EPSCs; type: cell-based, mice; details: EphB2 peptide in recording electrode
EphA8 = biological target: T2, EphA8 (Mus musculus, UniProt O09127); details: read-out: Kd for binding to EphA8; cited from earlier work
T2 sequence (O09127 27-1004): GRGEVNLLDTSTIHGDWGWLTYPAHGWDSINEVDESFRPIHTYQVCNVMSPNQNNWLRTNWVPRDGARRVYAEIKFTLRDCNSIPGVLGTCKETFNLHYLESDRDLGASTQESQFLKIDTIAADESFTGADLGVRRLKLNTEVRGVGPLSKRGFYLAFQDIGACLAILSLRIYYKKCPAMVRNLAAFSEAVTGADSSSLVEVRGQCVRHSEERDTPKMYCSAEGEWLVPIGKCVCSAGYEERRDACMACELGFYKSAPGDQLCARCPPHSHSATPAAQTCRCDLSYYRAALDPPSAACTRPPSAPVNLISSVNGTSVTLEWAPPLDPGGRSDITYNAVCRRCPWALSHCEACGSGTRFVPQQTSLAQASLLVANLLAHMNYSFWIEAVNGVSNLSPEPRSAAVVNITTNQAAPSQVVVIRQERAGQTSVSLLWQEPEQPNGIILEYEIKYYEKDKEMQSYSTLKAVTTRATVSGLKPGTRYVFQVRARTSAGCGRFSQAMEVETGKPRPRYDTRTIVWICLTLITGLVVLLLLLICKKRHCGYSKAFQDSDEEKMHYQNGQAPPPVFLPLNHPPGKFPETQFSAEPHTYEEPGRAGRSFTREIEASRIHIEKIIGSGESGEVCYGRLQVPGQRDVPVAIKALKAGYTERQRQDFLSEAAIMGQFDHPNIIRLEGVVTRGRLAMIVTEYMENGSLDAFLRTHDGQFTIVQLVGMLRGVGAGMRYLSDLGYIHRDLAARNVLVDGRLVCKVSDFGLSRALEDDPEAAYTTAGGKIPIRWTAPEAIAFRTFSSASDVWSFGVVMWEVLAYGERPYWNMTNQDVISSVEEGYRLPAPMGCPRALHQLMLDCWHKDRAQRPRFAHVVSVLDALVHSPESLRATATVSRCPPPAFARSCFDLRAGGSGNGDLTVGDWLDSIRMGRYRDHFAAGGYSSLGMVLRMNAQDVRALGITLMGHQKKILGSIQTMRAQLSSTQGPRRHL

EphA3 = details: read-out: Kd for binding to EphA3; cited from earlier work
His-GRIP(PDZ4-6) = biological target: T3, His-GRIP(PDZ4-6) (rat, UniProt P97879 448-792); assay: displacement of ^35S-EphB2 (50 nM) from His-GRIP-PDZ4-6, Hill fit
T3 construct: range 448-792; not shown: His tag and vector residues from pRSET
T3 sequence (looked up): T1 sequence (P97879 448-792)

[3] = biological target: postsynaptic EphB receptors; assay: cell-based or functional assay
[4] = peptide 50 μM in patch electrode
[5] = peptide in patch electrode (postsynaptic)
[6] = peptide in patch electrode, 20 to 30 minutes post tetanization

NVIYVKSEIG [R2ctSC, reference compound]
LTP (potentiation of the EPSC after tetanic stimulation) [1]: 200±11%
LTP PPR (paired pulse ratio after LTP induction) [1, 4]: 2.4±0.10
control PPR (paired pulse ratio before LTP induction) [1, 4]: 3.1±0.19
effect on basal synaptic transmission / basal EPSC amplitudes ([1]; peptide in patch electrode): stable
effect on tetanus induced LTP [1, 5]: little effect on induction of LTP
effect on tetanus induced LTP ([1]; peptide in patch electrode (postsynaptic), listed as GluR2ctSC): do not inhibit LTP
displacement of labeled EphB2 from GRIP PDZ4-6 (GRIP PDZ4-6; concentrations of up to 10 μM peptide, listed as GluR2ctSC): unable to displace binding; also recorded: do not inhibit binding of EphB2 to GRIP

QMNQIQSVEV [EphB2 peptide, Gln-Met-Asn-Gln-Ile-Gln-Ser-Val-Glu-Val]
LTP (potentiation of the EPSC after tetanic stimulation) [1]: 125±15%
LTP PPR (paired pulse ratio after LTP induction) [1, 4]: 2.5±0.27
control PPR (paired pulse ratio before LTP induction) [1, 4]: 2.5±0.22
PTP (post-tetanic potentiation) ([1]; peptide 50 μM in patch electrode, immediately following tetanic stimulation): 500±76%
effect on PTP [1, 5]: significantly impaired; also recorded: significantly depressed
effect on tetanus induced LTP [1, 5]: significantly impaired; also recorded: inhibit mossy fiber hippocampal CA3 neuronal LTP; also recorded: significantly depressed
largest LTP of single recordings (cumulative probability, FIG. 5) [1, 6]: about 160%
lowest LTP value of single recordings (cumulative probability, FIG. 5) [1, 6]: about 40%
Ki (GRIP PDZ4-6; 35S-EphB2 50 nM, fitted to the Hill equation, read-out: Ki, displacement of 35S-EphB2 binding to His-GRIP-PDZ 4-6): 43 nM
forskolin-mediated potentiation with peptide in the recording electrode [2]: 209±20%

B1: ephrin-A3: a 238 amino acid polypeptide; ephrin ligand (protein, UniProt P52797 1-238, looked up)
chain: MAAAPLLLLLLLVPVPLLPLLAQGPGGALGNRHAVYWNSSNQHLRREGYTVQVNVNDYLDIYCPHYNSSGVGPGAGPGPGGGAEQYVLYMVSRNGYRTCNASQGFKRWECNRPHAPHSPIKFSEKFQRYSAFSLGYEFHAGHEYYYISTPTHNLHWKCLRMKVFVCCASTSHSGEKPVPTLPQFTMGPNVKINVLEDFEGENPQVPKLEKSISGTSPKREHLPLAVGIAFFLMTFLAS
modifications: full-length
notes: a 238 amino acid polypeptide; ephrin ligand
Kd (EphA8): 1.1 nM
Kd (EphA3): 5 nM

QMNQIQSVEV (also called EphB2 peptide) [EphB2 carboxy terminal peptide]
Ki (His-GRIP(PDZ4-6)): 43 nM

B2: ephrin-B1-Fc fusion protein (Fc fusion, mouse, not shown: a dimerising Fc or GST)
chain (part 1 of 2): ATPLAKNLEPVSWSSLNPKFLSGKGLVIYPKIGDKLDIICPRAEAGRPYEYYKLYLVRPEQAAACSTVLDPNVLVTCNKPHQEIRFTIKFQEFSPNYMGLEFKKYHDYYITSTSNGSLEGLENREGGVCRTRTMKIVMKVGQDPNAVTPEQLTTSRPSKESDNTVKTATQAPGRGSQGDSDGKHETVNQEEKSGPGAGGGGSGDSIEGRMD
chain (part 2 of 2): HHHHH
LTP after tetanus in the presence of ephrinB1-Fc (5 µg/ml) [3]: 139%
forskolin potentiation of mossy fiber EPSCs after pre-application of ephrin-B1-Fc [3]: 219%
post-tetanic potentiation [3]: 430%

B3: ephrin-A5: a 28 kDa, 228 amino acid glycoprotein; ephrin ligand (protein, UniProt P52803 1-228, looked up)
chain: MLHVEMLTLVFLVLWMCVFSQDPGSKAVADRYAVYWNSSNPRFQRGDYHIDVCINDYLDVFCPHYEDSVPEDKTERYVLYMVNFDGYSACDHTSKGFKRWECNRPHSPNGPLKFSEKFQLFTPFSLGFEFRPGREYFYISSAIPDNGRRSCLKLKVFVRPTNSCMKTIGVHDRVFDVNDKVENSLEPADDTVHESAEPSRGENAAQTPRIPSRLLAILLFLLAMLLTL
modifications: full-length
notes: a 28 kDa, 228 amino acid glycoprotein; ephrin ligand
Kd (EphA8): 0.5 nM
